Like-named read-outs stand apart in the source and are kept apart here.
Tests used:
in vivo = test: in vivo; set-up: species or system Sprague-Dawley (SD) rats; settings: Sprague-Dawley, plasma, rat; for concentration at […]: 0.083 h after oral CNP
Experimental: At each time, 0.5 mL of blood was collected in the heparin sodium tubes. Plasma was separated by centrifugation at 4000 rpm for 10 min and stored below −80 °C until bioanalysis. Oasis PRiME HLB SPE cartridges (1 cc/30 mg, Waters, Milford, MA, USA) were used to process the plasma samples (Supplementary Materials).
The generic layout of instrumentation setup of the LVDI-UHPLC-MS/MS was conducted on a Shimadzu UHPLC system consisting of two LC-20ADXR pumps, a DGU-20A3R degasser, and a CBM-20A controller (Kyoto, Japan) with a SCIEX 4500 QTRAP mass spectrometer mounted with an electron spray ionization (ESI) interface as well as an electronic 6-port/2-channel valve (Foster City, CA, USA). Analyst software package (version 1.6.2, SCIEX) was implemented to control and synchronize the entire system, and also for data acquisition and processing. A single analytical run was fragmented into two phases, namely, loading and elution phases, by switching the electronic valve (Figure 2). At the loading phase, the valve was maintained at A-channel. The specimen aliquot of large volume delivered from the auto-sampler was captured onto a guard column. Meanwhile, the pumps were responsible for delivering the mobile phase at a high flow rate, aiming to dilute the sample solvent, thus facilitating the candidate constituents to concentrate on the pre-guard column. Then, the valve was automatically switched to the B-channel to trigger the elution phase. The trapped components were flushed from the pre-guard column into an analytical column, and underwent multiple reaction monitoring (MRM) analysis on the optimized LC gradients. The detailed information of LVDI-UHPLC-MS/MS analysis for pharmacokinetic and cocktail studies is shown in the Supplementary Materials section.

CYP2C19 = test: In vitro cocktail CYP450 activity assay in rat liver microsomes, CYP2C19 (omeprazole probe); settings: for IC50 at 15 min: Sprague-Dawley, rat, pooled rat liver microsomes, pH 7.4, probe omeprazole (1.07 µM, in seven-probe cocktail), IC50 CYP2C19, single components, RLM 0.2 mg/mL, triplicate, mean ± SD; for Response (% control) CYP2C19: at the Cmax level in rat plasma, calculated from the dose–response curve
Experimental: (§1) (OHBUP-[D6]) and 5 nM 4′-hydroxydiclofenac-[^13C6] (OHDIC-[^13C6]) as internal standards (ISs). […]
(§2) standard addition experiments. Each group included four concentration levels. For the PK […]
(§3) The probe compounds, viz. […]
(§4) chosen after incubating all the recruited substrates. In order to assure the linear relationship […]
(§5) The incubation system was also optimized in terms of substrate concentrations. The substrates concentrations of […]

CYP2B6 = test: In vitro cocktail CYP450 activity assay in rat liver microsomes, CYP2B6 (bupropion probe); settings: for IC50 at 15 min: Sprague-Dawley, rat, pooled rat liver microsomes, pH 7.4, probe bupropion (90 µM, in seven-probe cocktail), IC50 CYP2B6, single components, RLM 0.2 mg/mL, triplicate, mean ± SD
Experimental: as §1, §2, §3, §4, §5

CYP2C9 = test: In vitro cocktail CYP450 activity assay in rat liver microsomes, CYP2C9 (tolbutamide probe); settings: for IC50 at 15 min: Sprague-Dawley, rat, pooled rat liver microsomes, pH 7.4, probe tolbutamide (18 µM, in seven-probe cocktail), IC50 CYP2C9, single components, RLM 0.2 mg/mL, triplicate, mean ± SD
Experimental: as §1, §2, §3, §4, §5

CYP2D6 = test: in vitro; settings: Sprague-Dawley, rat; for IC50 at 15 min: microsomes, pH 7.4, IC50 CYP2D6
Experimental: as §1, §2, §3, §4, §5

CYP3A4 = test: in vitro
Experimental: as §1, §2, §3, §4, §5

CYP1A2 = target: T1, CYP1A2 (Rattus norvegicus, UniProt P04799); test: In vitro cocktail CYP450 activity assay in rat liver microsomes, CYP1A2 (phenacetin probe); settings: for IC50: IC50 CYP1A2, single components, RLM 0.2 mg/mL, 15 min, triplicate, mean ± SD; for Response (% control) CYP1A2: at the Cmax level in rat plasma, calculated from the dose–response curve
T1 sequence (P04799 1-513): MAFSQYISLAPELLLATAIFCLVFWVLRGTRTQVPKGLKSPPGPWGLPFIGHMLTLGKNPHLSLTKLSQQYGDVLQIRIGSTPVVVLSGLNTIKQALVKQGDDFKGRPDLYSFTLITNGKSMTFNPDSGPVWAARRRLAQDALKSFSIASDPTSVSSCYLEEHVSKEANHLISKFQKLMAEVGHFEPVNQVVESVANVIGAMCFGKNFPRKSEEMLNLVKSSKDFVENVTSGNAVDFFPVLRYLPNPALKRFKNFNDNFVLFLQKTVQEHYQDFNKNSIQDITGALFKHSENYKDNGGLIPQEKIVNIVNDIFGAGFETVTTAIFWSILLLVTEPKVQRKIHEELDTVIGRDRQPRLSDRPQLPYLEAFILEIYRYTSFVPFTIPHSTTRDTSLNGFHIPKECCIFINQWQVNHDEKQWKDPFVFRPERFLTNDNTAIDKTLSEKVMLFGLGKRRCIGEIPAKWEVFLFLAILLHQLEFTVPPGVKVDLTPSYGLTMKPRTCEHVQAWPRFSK
Experimental: as §1, §2, §3, §4, §5

CYP2E1 [1] = target: T2, CYP2E1 (Rattus norvegicus, UniProt P05182); settings: IC50 CYP2E1, single components; RLM 0.2 mg/mL, 15 min, triplicate, mean ± SD
Experimental: (§6) For the cocktail assay, the activity is expressed as the percentage of activity remaining comparing with that of a control sample containing no inhibitor. […] All the data were described as mean ± standard deviation (SD). Normality assumptions were tested by the Kolmogorov–Smirnov statistic setting p = 0.10 as the limit for rejection of the null hypothesis of normality. If the distribution of the data was normal with equal variances, a two-sided test was performed at the 5% level of significance. The Welch’s correction was then applied when the underlying variances were not equal. When the assumption of normality must be rejected, the Mann-Whitney test, a non-parametric equivalent of the independent-measures t-test, was used.

CYP2E1 [2] = target: T2, CYP2E1
Experimental: as §6

[3] = at the Cmax level in rat plasma, calculated from the dose–response curve
[4] = Sprague-Dawley, rat, 15 min, pH 7.4

T2 sequence (P05182 whole entry): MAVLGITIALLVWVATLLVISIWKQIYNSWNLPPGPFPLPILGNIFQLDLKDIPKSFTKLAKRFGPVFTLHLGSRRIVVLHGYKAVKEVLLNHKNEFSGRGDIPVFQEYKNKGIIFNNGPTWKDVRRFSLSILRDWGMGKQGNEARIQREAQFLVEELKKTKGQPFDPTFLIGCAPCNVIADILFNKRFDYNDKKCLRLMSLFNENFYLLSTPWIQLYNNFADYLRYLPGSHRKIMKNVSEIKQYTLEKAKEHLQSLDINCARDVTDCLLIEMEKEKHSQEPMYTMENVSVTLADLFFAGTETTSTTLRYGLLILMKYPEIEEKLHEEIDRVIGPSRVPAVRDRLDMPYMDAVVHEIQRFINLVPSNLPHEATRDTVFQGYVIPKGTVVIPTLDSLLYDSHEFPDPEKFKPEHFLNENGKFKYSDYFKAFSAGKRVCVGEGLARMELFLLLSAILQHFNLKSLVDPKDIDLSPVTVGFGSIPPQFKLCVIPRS

CC(C)=CCC[C@](C)(O[C@@H]1O[C@H](CO)[C@@H](O)[C@H](O)[C@H]1O)[C@H]1CC[C@]2(C)[C@@H]1[C@H](O)C[C@@H]1[C@@]3(C)CC[C@H](O[C@@H]4O[C@H](CO)[C@@H](O)[C@H](O)[C@H]4O[C@@H]4O[C@H](CO)[C@@H](O)[C@H](O)[C@H]4O)C(C)(C)[C@@H]3CC[C@]12C [GRd, ginsenoside Rd]
concentration at […] (in vivo): 6.63 ± 0.64 ng/mL
concentration at 0.25 h (in vivo; 0.25 h after oral CNP): 7.13 ± 0.69 ng/mL
concentration at 0.5 h (in vivo; 0.5 h after oral CNP): 12.5 ± 4.73 ng/mL
concentration at 1 h (in vivo; 1 h after oral CNP): 13.5 ± 3.67 ng/mL
concentration at 1.5 h (in vivo; 1.5 h after oral CNP): 12.8 ± 1.79 ng/mL
concentration at 2 h (in vivo; 2 h after oral CNP): 17.6 ± 5.2 ng/mL
concentration at 3 h (in vivo; 3 h after oral CNP): 18.7 ± 7.48 ng/mL
concentration at 4 h (in vivo; 4 h after oral CNP): 25 ± 15.8 ng/mL
concentration at 6 h (in vivo; 6 h after oral CNP): 24.9 ± 13.1 ng/mL
concentration at 8 h (in vivo; 8 h after oral CNP): 15.6 ± 5.29 ng/mL
concentration at 12 h (in vivo; 12 h after oral CNP): 12.4 ± 7.03 ng/mL
concentration at 24 h (in vivo; 24 h after oral CNP): 2.85 ± 0.67 ng/mL
concentration at 48 h (in vivo; 48 h after oral CNP): 3.96 ± 0.34 ng/mL
concentration at 72 h (in vivo; 72 h after oral CNP): 2.32 ± 0.12 ng/mL
AUC(0-inf) (in vivo; po, 60 mg/kg): 619 ± 157 ng·h/mL
AUC(0-t) (in vivo; po, 60 mg/kg): 461 ± 117 ng·h/mL
Cmax (in vivo; po, 60 mg/kg): 29.4 ± 10.7 ng/mL
Tmax (in vivo; po, 60 mg/kg): 4.5 ± 1.76 h
half-life (in vivo; po, 60 mg/kg): 42.8 ± 8.84 h
concentration at 0.25 h (in vivo; po, 60 mg·kg^−1): 9 ± 2.12 ng/mL
concentration at 0.5 h (in vivo; po, 60 mg·kg^−1): 11.5 ± 0.97 ng/mL
concentration at 1 h (in vivo; po, 60 mg·kg^−1): 13.9 ± 4.94 ng/mL
concentration at 1.5 h (in vivo; po, 60 mg·kg^−1): 14.9 ± 3.51 ng/mL
concentration at 2 h (in vivo; po, 60 mg·kg^−1): 19.2 ± 6.71 ng/mL
concentration at 3 h (in vivo; po, 60 mg·kg^−1): 22.3 ± 14.6 ng/mL
concentration at 4 h (in vivo; po, 60 mg·kg^−1): 23.9 ± 12.6 ng/mL
concentration at 6 h (in vivo; po, 60 mg·kg^−1): 26.2 ± 10.4 ng/mL
concentration at 8 h (in vivo; po, 60 mg·kg^−1): 16.7 ± 7.24 ng/mL
concentration at 12 h (in vivo; po, 60 mg·kg^−1): 8.73 ± 3.74 ng/mL
concentration at 24 h (in vivo; po, 60 mg·kg^−1): 3.57 ± 1.4 ng/mL
concentration at 48 h (in vivo; po, 60 mg·kg^−1): 4.15 ± 1.97 ng/mL
concentration at 72 h (in vivo; po, 60 mg·kg^−1): 2.52 ± 0.63 ng/mL
IC50 at 15 min (CYP2C19): 71.4 ± 14.3 µM
Response (% control) CYP2C19 (CYP2C19): 99.95 % control
IC50 at 15 min (CYP2B6): > 200 µM
IC50 at 15 min (CYP2C9): 73 ± 3.71 µM
Response (% control) CYP2C9 (CYP2C9; [3]): 99.97 % control
Response (% control) CYP2D6 (CYP2D6; 15 min, pH 7.4): 99.99 % control
IC50 at 15 min (CYP2D6): 64.8 ± 11.7 µM
Response (% control) CYP3A4 (CYP3A4; [4]): 85.25 % control
IC50 at 15 min (CYP3A4; Sprague-Dawley, rat, microsomes, pH 7.4): 61.4 ± 14.3 µM
IC50 (CYP1A2): 4.36 ± 2.31 µM
Response (% control) CYP1A2 (CYP1A2): 71.33 % control
IC50 (CYP2E1 [1]): 43.46 ± 0.06 µM
Response (% control) CYP2E1 (CYP2E1 [2]; [3]): 98.16 % control

CC(C)=CCC[C@](C)(O[C@@H]1O[C@H](CO)[C@@H](O)[C@H](O)[C@H]1O)[C@H]1CC[C@]2(C)[C@@H]1[C@H](O)C[C@@H]1[C@@]3(C)CC[C@H](O)C(C)(C)[C@@H]3[C@@H](O[C@@H]3O[C@H](CO)[C@@H](O)[C@H](O)[C@H]3O[C@@H]3O[C@@H](C)[C@H](O)[C@@H](O)[C@H]3O)C[C@]12C [GRe, ginsenoside Re]
concentration at […] (in vivo): 0.24 ± 0.02 ng/mL
concentration at 0.25 h (in vivo; 0.25 h after oral CNP): 0.25 ± 0.01 ng/mL
concentration at 0.5 h (in vivo; 0.5 h after oral CNP): 0.33 ± 0.11 ng/mL
concentration at 1 h (in vivo; 1 h after oral CNP): 0.24 ± 0.04 ng/mL
concentration at 1.5 h (in vivo; 1.5 h after oral CNP): 0.24 ± 0.03 ng/mL
concentration at 2 h (in vivo; 2 h after oral CNP): 0.23 ± 0.02 ng/mL
concentration at 3 h (in vivo; 3 h after oral CNP): 0.28 ± 0.1 ng/mL
concentration at 4 h (in vivo; 4 h after oral CNP): 0.28 ± 0.07 ng/mL
concentration at 6 h (in vivo; 6 h after oral CNP): 0.23 ± 0.03 ng/mL
concentration at 8 h (in vivo; 8 h after oral CNP): 0.14 ± 0.03 ng/mL
half-life (in vivo; po): 5.99 ± 3.86 h
AUC(0-inf) (in vivo; po, 60 mg/kg): 2.9 ± 0.6 ng·h/mL
AUC(0-t) (in vivo; po, 60 mg/kg): 1.82 ± 0.19 ng·h/mL
Cmax (in vivo; po, 60 mg/kg): 0.29 ± 0.04 ng/mL
Tmax (in vivo; po, 60 mg/kg): 2.6 ± 0.89 h
half-life (in vivo; po, 60 mg/kg): 5.25 ± 2.27 h
concentration at 0.25 h (in vivo; po, 60 mg·kg^−1): 0.26 ± 0.02 ng/mL
concentration at 0.5 h (in vivo; po, 60 mg·kg^−1): 0.24 ± 0.02 ng/mL
concentration at 1 h (in vivo; po, 60 mg·kg^−1): 0.25 ± 0.02 ng/mL
concentration at 1.5 h (in vivo; po, 60 mg·kg^−1): 0.22 ± 0.02 ng/mL
concentration at 2 h (in vivo; po, 60 mg·kg^−1): 0.21 ± 0.01 ng/mL
concentration at 3 h (in vivo; po, 60 mg·kg^−1): 0.27 ± 0.04 ng/mL
concentration at 4 h (in vivo; po, 60 mg·kg^−1): 0.25 ± 0.05 ng/mL
concentration at 6 h (in vivo; po, 60 mg·kg^−1): 0.24 ± 0.06 ng/mL
concentration at 8 h (in vivo; po, 60 mg·kg^−1): 0.13 ± 0.01 ng/mL
IC50 at 15 min (CYP2C19): 50.5 ± 15.4 µM
Response (% control) CYP2C19 (CYP2C19): 98.36 % control
IC50 at 15 min (CYP2B6): 39.4 ± 4.81 µM
Response (% control) CYP2B6 (CYP2B6; [3]): 99.64 % control
IC50 at 15 min (CYP2C9): > 200 µM
IC50 at 15 min (CYP2D6): > 200 µM
IC50 (CYP3A4; Sprague-Dawley, rat, microsomes, pH 7.4, IC50 CYP3A4, single components, RLM 0.2 mg/mL, 15 min, triplicate, mean ± SD): 75.1 ± 7.24 µM
Response (% control) CYP3A4 (CYP3A4; [3]): 99.99 % control
IC50 (CYP1A2): 94.4 ± 4.52 µM
Response (% control) CYP1A2 (CYP1A2): 99.99 % control
IC50 (CYP2E1 [1]): 25.6 ± 9.03 µM
Response (% control) CYP2E1 (CYP2E1 [2]; [4]): 97.35 % control

Source: article PMC7076352 (Pharmaceutics, 2020)
